ChEMBL document CHEMBL1148928, “Hyrtiosenolides A and B, two new sesquiterpene gamma-methoxybutenolides and a new sterol from a Red Sea sponge Hyrtios species” (2004)
Activity calls are given as the source filed them. No cut-off for these calls is given here.

How the values were obtained:
Escherichia coli [1] = experiment: Antibacterial activity against Escherichia coli at 50 ug/disk; assay type: functional
Escherichia coli [2] = experiment: Antibacterial activity against Escherichia coli at 100 ug/disk; assay type: functional

| SMILES | Activity (Escherichia coli [1]) | Activity (Escherichia coli [2]) | zone of inhibition at 50 µg/disc (Escherichia coli [1]; read-out: IZ) [mm] | zone of inhibition at 100 µg/disc (Escherichia coli [2]; read-out: IZ) [mm] |
| --- | --- | --- | --- | --- |
| C=C1[C@@]2(C)CCC3=CC(=O)O[C@]3(OC)[C@H](C2)C[C@@]1(C)O | inactive | inactive |  |  |
| C=C1C[C@H]2C[C@](C)(CCC3=CC(=O)O[C@@]32OC)[C@]1(C)O [HYRTIOSENOLIDE A] |  |  | 7 | 7 |
